We go through one compound from US8183388B2, “Androgen receptor modulator and uses thereof” (Eli Lilly and Company, priority 2009, dated 2012).

The target of assay [1] is T1, human PR (progesterone receptor) (Homo sapiens, UniProt P06401).
T1 construct: expressed in transfected cells; host or cells: HEK293 (lysate, 293-PR)
T1 sequence (P06401 1-933): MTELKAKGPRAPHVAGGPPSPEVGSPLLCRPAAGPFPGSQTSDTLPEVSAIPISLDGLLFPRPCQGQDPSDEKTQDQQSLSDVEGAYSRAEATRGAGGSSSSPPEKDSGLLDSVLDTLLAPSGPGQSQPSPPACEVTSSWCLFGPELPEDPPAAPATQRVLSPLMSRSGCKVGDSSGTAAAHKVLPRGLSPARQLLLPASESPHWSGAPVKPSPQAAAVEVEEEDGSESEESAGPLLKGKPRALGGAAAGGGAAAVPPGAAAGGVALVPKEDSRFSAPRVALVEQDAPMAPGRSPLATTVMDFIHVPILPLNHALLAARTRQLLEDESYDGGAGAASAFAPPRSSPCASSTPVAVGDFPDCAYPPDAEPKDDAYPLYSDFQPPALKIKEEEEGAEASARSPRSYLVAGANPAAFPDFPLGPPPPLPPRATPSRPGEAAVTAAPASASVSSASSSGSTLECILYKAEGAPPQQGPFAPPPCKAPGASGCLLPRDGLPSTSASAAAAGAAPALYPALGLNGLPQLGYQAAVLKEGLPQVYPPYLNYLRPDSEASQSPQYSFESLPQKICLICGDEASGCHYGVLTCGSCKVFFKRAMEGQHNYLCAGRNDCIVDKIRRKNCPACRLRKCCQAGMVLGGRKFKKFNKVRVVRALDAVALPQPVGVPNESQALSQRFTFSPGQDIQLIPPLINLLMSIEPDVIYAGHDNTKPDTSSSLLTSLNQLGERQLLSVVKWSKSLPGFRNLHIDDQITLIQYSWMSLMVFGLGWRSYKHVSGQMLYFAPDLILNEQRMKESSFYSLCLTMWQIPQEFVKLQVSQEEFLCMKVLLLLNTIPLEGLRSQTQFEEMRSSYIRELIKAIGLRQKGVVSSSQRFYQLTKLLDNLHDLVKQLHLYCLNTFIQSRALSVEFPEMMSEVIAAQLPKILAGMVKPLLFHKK
The experiment in a line: Steroid hormone nuclear receptor binding assay, PR. Particulars: HEK293 lysate overexpressing human PR, [3H]-methyltrienolone. The method, then: Cell lysates from human embryonic kidney HEK293 cells overexpressing human MR (mineralocorticoid receptor), GR (glucocorticoid receptor), AR (androgen receptor), or PR (progesterone receptor) are used for receptor-ligand competition binding assays to determine Ki values. Typical procedures are provided below
Briefly, steroid receptor competition binding assays are run in a buffer containing 20 mM HEPES buffer (pH=7.6), 0.2 mM EDTA, 75 mM NaCl, 1.5 mM MgCl2, 20% glycerol, 20 mM sodium molybdate, 0.2 mM DTT (dithiothreitol), 20 μg/mL aprotinin and 20 μg/mL leupeptin (assay buffer). Typically, steroid receptor binding assays include radio-labeled ligands, such as 0.25 nM [^3H]-aldosterone for MR binding, 0.3 nM [^3H]-dexamethasone for GR binding, 0.36 nM [^3H]-methyltrienolone for AR binding, and 0.29 nM [^3H]-methyltrienolone for PR binding, and either 20 μg 293-MR lysate, 20 μg 293-GR lysate, 22 μg 293-AR lysate, or 40 μg 293-PR lysate per well. Assays are typically run in 96-well format. Competing test compounds are added at various concentrations ranging from about 0.01 nM to 10 μM. Non-specific binding is determined in the presence of 500 nM aldosterone for MR binding, 500 nM dexamethasone for GR binding, or 500 nM methyltrienolone for AR and PR binding. […] After an incubation of 2 hours, plates are read in a Wallac Microbeta counter. […]

Assay [2] has as its system castrated (GDX) male Sprague Dawley rats. Kind of assay: In vivo model of efficacy and selectivity (castrated rats, tissue wet weights). Particulars: for mean normalized LA wet weight value / mean normalized bulbocavernous wet weight value / mean normalized prostate wet weight value: two week treatment, n=6, wet weight divided by body weight. The method, then: Eight week old male Sprague Dawley rats are castrated (gonadectomized or “GDX”) according to approved procedures and allowed to waste for eight weeks. Age-matched sham-operated […] are also prepared. Animals are housed in a temperature-controlled room (24° C.) with a reversed 12 hour light/dark cycle and water and food are available ad libitum.
Animals are randomized based on body weight prior to ascribing a test slot. Test compound in vehicle, or vehicle alone, is administered daily by subcutaneous injection to the castrated 16 week old rats (body weight about 380-400 g) using a conventional vehicle such as 5% DMSO/95% soybean oil. Sham operated rats treated with vehicle alone are used as a treatment positive controls, whereas the castrated rats treated only with vehicle are used as treatment negative control. A separate cohort of castrated animals are treated with testosterone as a comparator.
Test animals are dosed daily over a two or eight week timeframe with, for example, 0.1, 0.3, or 1.0 mg/kg per day of the compound of the present invention, or weekly with 10 mg/kg per week of testosterone (sesame oil vehicle) After the treatment period the animals are sacrificed and the wet weight of the levator ani (LA) muscle, the prostate and the bulbocavernous muscle from each animal is determined (after weighing, the bulbocavernous muscle may be flash frozen in liquid nitrogen for later use in measuring neuronal nitric oxide synthase mRNA, as described below). The wet weights are then normalized by dividing each individual wet weight by the body weight of the corresponding animal at the end of the study. The normalized values from the treatment animals are then compared to the normalized values from the castrated, vehicle-only control group or the sham group. As an indicator of tissue selective activity, the wet weight of the prostate from test animals may be similarly compared to the wet weight of the prostate from the control groups or the testosterone-treated comparator group.

SMILES strings stand for the structures. Where only a bound is given, the exact number is not on record here.

Consider `CC(C)OC(=O)N[C@H]1Cc2c(n(C[C@H]3OCC[C@@H]3O)c3ccc(C#N)cc23)C1` [compound of Formula (I), [(S)-7-Cyano-4-((2R,3S)-3-hydroxytetrahydrofuran-2-ylmethyl)-1,2,3,4-tetrahydrocyclopenta[b]indol-2-yl]-carbamic acid isopropyl ester], for which the Ki in assay [1] was > 4 µM. Further, in assay [2] (0.1 mg/kg per day s.c.), the “mean normalized LA wet weight value” is “about 0.44”, the “mean normalized bulbocavernous wet weight value” is “about 0.77” and the “mean normalized prostate wet weight value” is “about 0.04”. In assay [2] (0.3 mg/kg per day s.c.), the “mean normalized LA wet weight value” is listed as “about 0.57”, the “mean normalized bulbocavernous wet weight value” is “about 1.29” and the “mean normalized prostate wet weight value” is “about 0.14”. In assay [2] (1.0 mg/kg per day s.c.), the “mean normalized LA wet weight value” was “about 0.68”, the “mean normalized bulbocavernous wet weight value” is listed as “about 1.41” and the “mean normalized prostate wet weight value” is “about 0.52”. Further, in assay [2] (0.1-1.0 mg/kg per day s.c., two weeks), the “levator ani and bulbocavernous muscle weights in comparison to the castrated control group” value is “dose dependent increase”. For the same compound, in assay [2] (two weeks, tissue selectivity), the “effect on prostate weight when compared to Sham control and testosterone treated animals” value was “decreased effect”.
